# Assay results from patent US8772307B2, “Substituted spiro compounds and their use for producing pain-relief medicaments” (Gruenenthal GmbH, priority 2005, dated 2014).
# What was measured:
# [1] = biological target: T1, rat-species vanilloid receptor 1 (VR1/TRPV1) (Rattus norvegicus, UniProt O35433); experiment: Functional testing on vanilloid receptor 1 (VR1/TRPV1): FLIPR Ca2+ inflow assay in rat dorsal root ganglia cells (% activation / % inhibition vs capsaicin); format: cell-based; conditions: for inhibition at 10 µM: inhibition compared to 10 μM CP (capsaicin); for activation at 10 µM: stimulation compared to 10 μM CP (capsaicin); for IC50: capsaicin (CAP) stimulus, average
# T1 construct: endogenous in cells; host or cells: primary cells dissociated from rat dorsal root ganglia (DRG)
# T1 sequence (O35433 whole entry): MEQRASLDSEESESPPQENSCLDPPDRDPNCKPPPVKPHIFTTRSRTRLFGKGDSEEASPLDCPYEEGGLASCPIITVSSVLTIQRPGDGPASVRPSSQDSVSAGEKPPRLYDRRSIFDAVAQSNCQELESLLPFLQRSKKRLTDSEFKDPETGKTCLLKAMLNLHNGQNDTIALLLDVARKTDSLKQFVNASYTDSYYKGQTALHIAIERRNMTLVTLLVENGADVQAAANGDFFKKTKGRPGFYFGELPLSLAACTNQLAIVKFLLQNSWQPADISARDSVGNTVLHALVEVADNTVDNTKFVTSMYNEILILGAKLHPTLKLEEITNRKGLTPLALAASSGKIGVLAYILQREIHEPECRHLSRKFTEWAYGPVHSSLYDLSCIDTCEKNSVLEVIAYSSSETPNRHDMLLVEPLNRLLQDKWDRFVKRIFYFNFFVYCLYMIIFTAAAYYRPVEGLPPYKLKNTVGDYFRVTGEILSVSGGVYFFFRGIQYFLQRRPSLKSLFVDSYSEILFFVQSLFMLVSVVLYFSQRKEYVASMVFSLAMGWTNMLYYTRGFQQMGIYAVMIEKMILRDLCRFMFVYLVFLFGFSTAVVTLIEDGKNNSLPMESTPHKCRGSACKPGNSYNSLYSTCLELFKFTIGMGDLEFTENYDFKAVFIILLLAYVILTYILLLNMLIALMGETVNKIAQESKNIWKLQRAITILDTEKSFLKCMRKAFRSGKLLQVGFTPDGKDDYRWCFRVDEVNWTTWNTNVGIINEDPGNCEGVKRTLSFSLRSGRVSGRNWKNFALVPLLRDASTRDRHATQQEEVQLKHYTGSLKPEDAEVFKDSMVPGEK
# How it was run: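 Rat dorsal root ganglion cells, dissociated with collagenase and trypsin, were plated at 3×10^5/mL on laminin-coated plates in NGF-containing HAMS F12 and cultured 2-3 days at 37° C. Ca2+ inflow read by Fluo-4 fluorescence on FLIPR; test compounds at 10 μM referenced to 10 μM capsaicin.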
# [2] = biological target: T2, vanilloid receptor (VR1) (Homo sapiens, UniProt Q8NER1); experiment: Functional testing on vanilloid receptor (VR1): FLIPR Ca2+ inflow assay in CHO K1 cells stably transfected with the VR1 gene; format: cell-based; conditions: for inhibition at 10 µM: CHO-K1, inhibition compared to 10 μM CP (capsaicin); for activation at 10 µM: CHO-K1, stimulation compared to 10 μM CP (capsaicin); for IC50: capsaicin (CAP) stimulus, average
# T2 construct: expressed in transfected cells; host or cells: CHO K1 cells (ECACC), stably transfected
# T2 sequence (Q8NER1 whole entry): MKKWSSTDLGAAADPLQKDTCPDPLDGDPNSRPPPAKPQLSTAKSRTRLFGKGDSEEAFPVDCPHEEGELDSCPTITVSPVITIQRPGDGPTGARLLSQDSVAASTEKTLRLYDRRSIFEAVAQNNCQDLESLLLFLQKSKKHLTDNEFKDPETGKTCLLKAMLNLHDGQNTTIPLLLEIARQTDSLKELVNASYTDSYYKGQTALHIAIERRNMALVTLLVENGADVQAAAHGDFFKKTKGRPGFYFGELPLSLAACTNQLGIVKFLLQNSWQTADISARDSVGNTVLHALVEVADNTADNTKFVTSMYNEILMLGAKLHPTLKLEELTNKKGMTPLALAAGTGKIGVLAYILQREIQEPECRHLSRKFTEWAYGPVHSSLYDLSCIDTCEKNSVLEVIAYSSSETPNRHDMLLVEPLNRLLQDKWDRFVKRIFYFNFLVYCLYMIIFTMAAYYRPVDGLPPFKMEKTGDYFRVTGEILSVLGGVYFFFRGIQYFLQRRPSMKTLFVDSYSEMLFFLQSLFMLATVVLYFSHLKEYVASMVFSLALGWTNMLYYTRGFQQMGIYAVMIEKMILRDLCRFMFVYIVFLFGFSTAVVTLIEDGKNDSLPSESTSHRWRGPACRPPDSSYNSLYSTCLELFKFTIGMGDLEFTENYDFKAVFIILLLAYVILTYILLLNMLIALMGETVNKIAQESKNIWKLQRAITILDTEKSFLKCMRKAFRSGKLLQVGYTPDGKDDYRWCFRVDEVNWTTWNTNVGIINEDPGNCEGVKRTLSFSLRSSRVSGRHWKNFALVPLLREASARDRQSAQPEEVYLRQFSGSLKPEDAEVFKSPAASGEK
# How it was run: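 CHO K1 cells stably expressing VR1, loaded with Fluo-4 (2 μM, 30 min, 37° C); peak Ca²⁺ fluorescence read on FLIPR. Compound (10 μM) added first, agonism as % of 10 μM capsaicin signal; after 5 min, 100 nM capsaicin added, % inhibition calculated relative to maximal inhibition with 10 μM capsaicin.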
Structure (SMILES),inhibition at 10 µM [1] [%],activation at 10 µM [1] [%],inhibition at 10 µM [2] [%],activation at 10 µM [2] [%],IC50 [1] [nM],IC50 [2] [nM]
"FC(F)(F)c1cccc(NC(=S)N2CCC3(CC2)CC(c2ccccc2)=NO3)c1 [Compound 262, 3-phenyl-1-oxa-2,8-diazaspiro[4.5]dec-2-ene-8-thiocarboxylic acid-(3-trifluoromethylphenyl)amide]",52.5,-0.54,7.81,-0.28,,
"COc1cccc(C2=NOC3(CCN(C(=S)Nc4ccc(C(C)(C)C)cc4)CC3)C2)c1 [Compound 278, 3-(3-methoxyphenyl)-1-oxa-2,8-diazaspiro[4.5]dec-2-ene-8-thiocarboxylic acid-(4-tert-butylphenyl)amide]",88.1,0.73,28.1,0.66,,
"Cc1ccc(C2=NOC3(CCN(C(=S)NC4CCCC4)CC3)C2)cc1 [Compound 290, 3-p-tolyl-1-oxa-2,8-diazaspiro[4.5]dec-2-ene-8-thiocarboxylic acid cyclopentylamide]",48.4,-0.47,-7.84,-0.28,,
"O=C(C=Cc1ccc(C(F)(F)F)cc1)N1CCC2(CC1)CC(c1ccccc1)=NO2 [Compound 314, 1-(3-phenyl-1-oxa-2,8-diazaspiro[4.5]dec-2-en-8-yl)-3-(4-trifluoromethylphenyl)propenone]",82,-6,6,0,150,825
"CC(C)(C)c1ccc(C=CC(=O)N2CCC3(CC2)CC(c2ccccc2)=NO3)cc1 [Compound 323, 3-(4-tert-butylphenyl)-1-(3-phenyl-1-oxa-2,8-diazaspiro[4.5]dec-2-en-8-yl)propenone]",98,0,36,0,181,1440
"CC(C)c1ccc(C=CC(=O)N2CCC3(CC2)CC(c2ccccc2)=NO3)cc1 [Compound 325, 3-(4-isopropylphenyl)-1-(3-phenyl-1-oxa-2,8-diazaspiro[4.5]dec-2-en-8-yl)propenone]",63,-6,6,0,270,875
"CC(C)(C)c1ccc(NC(=O)N2CCC3(CC2)CC(c2ncccc2Cl)=NO3)cc1 [Compound 329, 3-(3-chloropyridin-2-yl)-1-oxa-2,8-diazaspiro[4.5]dec-2-ene-8-carboxylic acid-(4-tert-butylphenyl)amide]",96,71,37,38,,
"CC(C)(C)c1ccc(NC(=O)N2CCC3(CC2)CC(c2cccc(Cl)c2)=NO3)cc1 [Compound 333, N-(4-tert-butylphenyl)-3-(3-chlorophenyl)-1-oxa-2,8-diazaspiro[4.5]dec-2-ene-8-carboxamide]",101,9,29,8,,
"CC(C)(C)c1ccc(C(/C=C/c2ccccc2)=C/C(=O)N2CCC3(CC2)CC(c2ccccc2)=NO3)cc1 [Compound 337, (2E,4E)-3-(4-tert-butylphenyl)-5-phenyl-1-(3-phenyl-1-oxa-2,8-diazaspiro[4.5]dec-2-en-8-yl)penta-2,4-dien-1-one]",95,1,16,-1,,
"COc1cccc(C2=NOC3(CCN(C(=O)/C=C/c4ccc(C(F)(F)F)nc4N4CCOCC4)CC3)C2)c1 [Compound 342, (E)-1-(3-(3-methoxyphenyl)-1-oxa-2,8-diazaspiro[4.5]dec-2-en-8-yl)-3-(2-morpholino-6-(trifluoromethyl)pyridin-3-yl)prop-2-en-1-one]",60,0,53,0,478,1550
"O=C(/C=C/c1cccc(Br)c1)N1CCC2(CC1)CC(c1ccccc1)=NO2 [Compound 346, (E)-3-(3-bromophenyl)-1-(3-phenyl-1-oxa-2,8-diazaspiro[4.5]dec-2-en-8-yl)prop-2-en-1-one]",62,0,3,0,1360,4380
"O=C(Nc1ccc(C(F)(F)F)cc1)N1CCC2(CC1)CC(c1cccc(F)c1)=NO2 [Compound 348, 3-(3-fluorophenyl)-N-(4-(trifluoromethyl)phenyl)-1-oxa-2,8-diazaspiro[4.5]dec-2-ene-8-carboxamide]",101,3,60,0,,
"CC(C)(C)c1ccc(NC(=O)N2CCC3(CC2)CC(c2ccc(F)cc2)=NO3)cc1 [Compound 349, N-(4-tert-butylphenyl)-3-(4-fluorophenyl)-1-oxa-2,8-diazaspiro[4.5]dec-2-ene-8-carboxamide]",100,5,-12,1,,
"CC(C)(C)c1ccc(CCC(=O)N2CCC3(CC2)CC(c2ccccc2)=NO3)cc1 [Compound 350, 3-(4-tert-butylphenyl)-1-(3-phenyl-1-oxa-2,8-diazaspiro[4.5]dec-2-en-8-yl)propan-1-one]",81,1,-4,0,,
"CC(C)(C)c1ccc(NC(=O)N2CCC3(CC2)CC(c2cccc(F)c2)=NO3)cc1 [Compound 351, N-(4-tert-butylphenyl)-3-(3-fluorophenyl)-1-oxa-2,8-diazaspiro[4.5]dec-2-ene-8-carboxamide]",101,6,83,3,,
"CC(C)(C)c1ccc(NC(=O)N2CCC3(CC2)CC(c2ccccc2F)=NO3)cc1 [Compound 352, N-(4-tert-butylphenyl)-3-(2-fluorophenyl)-1-oxa-2,8-diazaspiro[4.5]dec-2-ene-8-carboxamide]",95,7,-3,2,,
"CC(C)(C)c1ccc(/C=C/C(=O)N2CCC3(CC2)CC(c2cccc(F)c2)=NO3)cc1 [Compound 353, (E)-3-(4-tert-butylphenyl)-1-(3-(3-fluorophenyl)-1-oxa-2,8-diazaspiro[4.5]dec-2-en-8-yl)prop-2-en-1-one]",84,0,23,0,,
"O=C(/C=C/c1ccc(C(F)(F)F)nc1N1CCCCC1)N1CCC2(CC1)CC(c1ccccc1)=NO2 [Compound 355, (E)-1-(3-phenyl-1-oxa-2,8-diazaspiro[4.5]dec-2-en-8-yl)-3-(2-(piperidin-1-yl)-6-(trifluoromethyl)pyridin-3-yl)prop-2-en-1-one]",98,0,63,0,,
"O=C(/C=C/c1ccc(C(F)(F)F)nc1N1CCCCC1)N1CCC2(CC1)CC(c1cccc(Cl)c1)=NO2 [Compound 356, (E)-1-(3-(3-chlorophenyl)-1-oxa-2,8-diazaspiro[4.5]dec-2-en-8-yl)-3-(2-(piperidin-1-yl)-6-(trifluoromethyl)pyridin-3-yl)prop-2-en-1-one]",88,0,52,0,,
"CC(C)(C)c1ccc(C(/C=C/c2ccccc2)=C/C(=O)N2CCC3(CC2)CC(c2cccc(F)c2)=NO3)cc1 [Compound 358, (2E,4E)-3-(4-tert-butylphenyl)-1-(3-(3-fluorophenyl)-1-oxa-2,8-diazaspiro[4.5]dec-2-en-8-yl)-5-phenylpenta-2,4-dien-1-one]",95,0,41,0,148,1110
"CC(C)(C)c1ccc(/C(=C/C(=O)N2CCC3(CC2)CC(c2ccccc2F)=NO3)c2ccc(Cl)c(Cl)c2)cc1 [Compound 359, (Z)-3-(4-tert-butylphenyl)-3-(3,4-dichlorophenyl)-1-(3-(2-fluorophenyl)-1-oxa-2,8-diazaspiro[4.5]dec-2-en-8-yl)prop-2-en-1-one]",57,3,26,0,,
"CC(C)(C)c1ccc(/C(=C/C(=O)N2CCC3(CC2)CC(c2cccc(F)c2)=NO3)c2ccc(Cl)c(Cl)c2)cc1 [Compound 360, (Z)-3-(4-tert-butylphenyl)-3-(3,4-dichlorophenyl)-1-(3-(3-fluorophenyl)-1-oxa-2,8-diazaspiro[4.5]dec-2-en-8-yl)prop-2-en-1-one]",80,3,12,0,,
"COc1cccc(C2=NOC3(CCN(C(=O)C#Cc4ccc(C(F)(F)F)cc4)CC3)C2)c1 [Compound 361, 1-(3-(3-methoxyphenyl)-1-oxa-2,8-diazaspiro[4.5]dec-2-en-8-yl)-3-(4-(trifluoromethyl)phenyl)prop-2-yn-1-one]",58,0,12,0,,
